In assay [1] the target is T1, P2Y purinoceptor 2 (Homo sapiens, UniProt P41231). In words: Agonist activity at human P2Y2 receptor expressed in 1321N1 cells assessed as [3H]-inositol phosphate accumulation measured after 90 mins by anion exchange chromatographic method. It is filed as functional, cell-based.
Assay [2] addresses T1, P2Y purinoceptor 2. As to the kind of experiment: Agonist activity at P2Y2 receptor (unknown origin). It is filed as functional.
Assay [3] concerns the target P2Y purinoceptor 1 (Homo sapiens, UniProt P47900). As to the kind of experiment: Antagonist activity at P2Y1 receptor (unknown origin). It counts as functional.
The target in assay [4] is T1, P2Y purinoceptor 2. As to the kind of experiment: Agonist activity at P2Y2 receptor in human CF/T43 cells. It is filed as functional, cell-based.
In assay [5] the target is T1, P2Y purinoceptor 2. As to the kind of experiment: Agonist activity at P2Y2 receptor in NG108-15 cells (unknown origin). It counts as functional, cell-based.
The target of assay [6] is T1, P2Y purinoceptor 2. In words: Agonist activity at P2Y2 receptor in BEA cells (unknown origin). It is filed as functional, cell-based.

T1 sequence (P41231 whole entry): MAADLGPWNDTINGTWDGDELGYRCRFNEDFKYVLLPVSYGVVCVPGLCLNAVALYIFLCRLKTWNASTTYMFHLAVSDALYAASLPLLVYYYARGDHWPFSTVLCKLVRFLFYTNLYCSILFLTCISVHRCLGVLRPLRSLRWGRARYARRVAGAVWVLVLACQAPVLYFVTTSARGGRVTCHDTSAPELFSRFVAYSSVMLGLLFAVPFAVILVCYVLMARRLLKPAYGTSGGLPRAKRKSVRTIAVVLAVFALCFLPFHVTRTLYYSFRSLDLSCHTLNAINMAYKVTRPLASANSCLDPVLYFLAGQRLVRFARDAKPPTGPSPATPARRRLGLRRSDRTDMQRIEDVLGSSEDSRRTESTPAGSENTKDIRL
Sequence of P2Y purinoceptor 1 (P47900 whole entry): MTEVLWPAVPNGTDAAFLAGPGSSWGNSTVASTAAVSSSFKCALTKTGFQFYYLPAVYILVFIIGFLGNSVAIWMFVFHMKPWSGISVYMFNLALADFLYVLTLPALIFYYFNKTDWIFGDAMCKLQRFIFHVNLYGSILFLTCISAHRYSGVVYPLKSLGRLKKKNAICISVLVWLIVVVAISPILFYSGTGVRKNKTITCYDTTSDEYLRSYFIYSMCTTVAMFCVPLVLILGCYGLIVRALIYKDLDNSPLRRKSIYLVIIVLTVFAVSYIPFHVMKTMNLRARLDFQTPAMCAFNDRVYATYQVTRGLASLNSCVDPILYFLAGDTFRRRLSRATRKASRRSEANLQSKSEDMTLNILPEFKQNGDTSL

Take `O=c1[nH]c(=S)ccn1[C@@H]1O[C@H](COP(=O)(O)OP(=O)(O)OP(=O)(O)O)[C@@H](O)[C@H]1O`: in assay [1], the EC50 stood at 710 nM.
Consider `O=c1[nH]c(=O)n([C@@H]2O[C@H](COP(=O)(O)OP(=O)(O)OP(=O)(O)O)[C@@H](O)[C@H]2O)cc1Br`, for which the EC50 in assay [2] came out at 220 nM.
`O=c1nc(N2CCOCC2)ccn1[C@@H]1O[C@H](COP(=O)(O)OP(=O)(O)OP(=O)(O)O)[C@@H](O)[C@H]1O`: in assay [1], the EC50 was 10200 nM.
On the same count and under the same terms, in the case of `C#CCNC(=O)COc1ccc(CCCO/N=c2\ccn([C@@H]3O[C@H](COP(=O)(O)OP(=O)(O)OP(=O)(O)O)[C@@H](O)[C@H]3O)c(=O)[nH]2)cc1` it was 109 nM; in that of `CCCCCCOc1ccn([C@@H]2O[C@H](COP(=O)(O)OP(=O)(O)OP(=O)(O)O)[C@@H](O)[C@H]2O)c(=O)n1`, 489000 nM; in that of `CSc1ccn([C@@H]2O[C@H](COP(=O)(O)OP(=O)(O)OP(=O)(O)O)[C@@H](O)[C@H]2O)c(=O)n1`, 3100 nM.
Regarding `COc1ccn([C@@H]2O[C@H](COP(=O)(O)OP(=O)(O)OP(=O)(O)O)[C@@H](O)[C@H]2O)c(=O)n1`, in assay [1], the EC50 came to 15500 nM.
Regarding `CNc1ncnc2c1ncn2[C@@H]1C[C@H](COP(=O)(O)O)[C@@H](OP(=O)(O)O)C1`, in assay [3], the IC50 was 148 nM.
For the compound `CCCCCCNc1ccn([C@@H]2O[C@H](COP(=O)(O)OP(=O)(O)OP(=O)(O)O)[C@@H](O)[C@H]2O)c(=O)n1`, the 50% effective concentration (EC50) in assay [1] came to 26300 nM.
For the compound `CN(C)c1ccn([C@@H]2O[C@H](COP(=O)(O)OP(=O)(O)OP(=O)(O)O)[C@@H](O)[C@H]2O)c(=O)n1`, the concentration for a half-maximal effect (EC50) in assay [1] stood at 29800 nM.
The same measure, in the same setting: in the case of `CCCCCCSc1ccn([C@@H]2O[C@H](COP(=O)(O)OP(=O)(O)OP(=O)(O)O)[C@@H](O)[C@H]2O)c(=O)n1` it was 840 nM.
In the case of `Nc1ncnc2c1ncn2[C@@H]1O[C@H](COP(=O)(O)OP(=O)(O)OP(=O)(O)O)[C@@H](O)[C@H]1O` [ADENOSINE TRIPHOSPHATE], the values for the EC50 in assay [4], in assay [5] and in assay [6] were 200 nM, 180 nM and 200 nM, respectively.
As for `Nc1ccn([C@@H]2O[C@H](COP(=O)(O)OP(=O)(O)OP(=O)(O)O)[C@@H](O)[C@H]2O)c(=O)n1` [CYSTETINE TRIPHOSPHATE], in assay [1], the EC50 was 37800 nM.
For `O=c1ccn([C@@H]2O[C@H](COP(=O)(O)OP(=O)(O)OP(=O)(O)O)[C@@H](O)[C@H]2O)c(=O)[nH]1` [URIDINE TRIPHOSPHATE], the figures for the EC50 in assay [1], in assay [5] and in assay [6] were 120 nM, 1250 nM and 160 nM, respectively.

The values above are taken from ChEMBL document CHEMBL4184187, “Current knowledge on the nucleotide agonists for the P2Y2 receptor” (Bioorg Med Chem, 2018).
